Experimental data: patent publication US20240018122A1, “PYRIDAZINYL AMINO DERIVATIVES AS ALK5 INHIBITORS” (CHIESI FARMACEUTICI S.P.A., priority 2020, published 2024)
Read-outs that look alike come from different tables or passages of the source.

Target: human ALK5 (Homo sapiens (Human), UniProt P36897)
Assay: ADP-GLO Kinases assay, inhibitory activity on ALK5
Type: biochemical
[1] = purified recombinant human ALK5 2.6 nM, TGFβ1 peptide substrate, 25° C, 150 min incubation, ADP-Glo detection, read-out: ALK5 IC50

Chain of human ALK5 (P36897 80-503 limits assumed): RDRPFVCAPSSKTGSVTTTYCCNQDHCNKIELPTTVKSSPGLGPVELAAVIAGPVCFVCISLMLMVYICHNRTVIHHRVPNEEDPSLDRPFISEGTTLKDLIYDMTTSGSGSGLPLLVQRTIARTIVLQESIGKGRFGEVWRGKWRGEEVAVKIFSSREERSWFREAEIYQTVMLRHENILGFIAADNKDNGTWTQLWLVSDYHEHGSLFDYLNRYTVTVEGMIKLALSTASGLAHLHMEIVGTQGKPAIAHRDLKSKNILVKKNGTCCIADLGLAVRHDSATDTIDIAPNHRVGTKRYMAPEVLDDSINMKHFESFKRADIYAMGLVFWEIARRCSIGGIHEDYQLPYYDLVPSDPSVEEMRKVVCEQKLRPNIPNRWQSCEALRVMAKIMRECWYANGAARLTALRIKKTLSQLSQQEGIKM

Structure (SMILES) | IC50 [1] [nM] | IC50 [nM]
CN1CCC2(CC1)CN(C(=O)Oc1ccc3c(Nc4cnnc(-c5cc(Cl)ccc5F)c4)ccnc3c1)C2 [Example 115, 4-{[6-(5-Chloro-2-Fluorophenyl)Pyridazin-4-Yl]Amino}Quinolin-7-Yl 7-Methyl-2,7-Diazaspiro[3.5]Nonane-2-Carboxylate] | < 1 | –
Fc1ccc(Cl)cc1-c1cc(Nc2nc3cccnc3[nH]2)cnn1 [Example C1, 6-(5-chloro-2-fluorophenyl)-N-{3H-imidazo[4,5-b]pyridin-2-yl}pyridazin-4-amine, reference compound] | 6290 | –
CN1CCC(N2CCN(C(=O)Oc3ccc4c(Nc5cnnc(-c6cc(Cl)ccc6F)c5)ccnc4c3)CC2)CC1 [Example 103, 4-{[6-(5-Chloro-2-Fluorophenyl)Pyridazin-4-Yl]Amino}Quinolin-7-Yl 4-(1-Methylpiperidin-4-Yl)Piperazine-1-Carboxylate] | – | 1 to 5
COC(=O)c1cccc(-c2cc(Nc3ccnc(N)c3)cnn2)c1F [Example C3, reference compound] | 10000 | –
O=C(CCN1CCN(CC(F)(F)F)CC1)Nc1cc(Nc2cnnc(-c3cc(Cl)ccc3F)c2)ccn1 [Example 47, N-(4-{[6-(5-Chloro-2-Fluorophenyl)Pyridazin-4-Yl]Amino}Pyridin-2-Yl)-3-[4-(2,2,2-Trifluoroethyl)Piperazin-1-Yl]Propanamide] | 1 to 5 | –
O=C(Oc1ccc2c(Nc3cnnc(-c4cc(Cl)ccc4F)c3)ccnc2c1)N1CCC2(CCNCC2)C1 [Example 112, 4-{[6-(5-Chloro-2-Fluorophenyl)Pyridazin-4-Yl]Amino}Quinolin-7-Yl 2,8-Diazaspiro[4.5]Decane-2-Carboxylate] | < 1 | –
CN1CCN(CCC2CCN(C(=O)Oc3ccc4c(Nc5cnnc(-c6cc(Cl)ccc6F)c5)ccnc4c3)CC2)CC1 [Example 70, 4-{[6-(5-Chloro-2-Fluorophenyl)Pyridazin-4-Yl]Amino}Quinolin-7-Yl 4-[2-(4-Methylpiperazin-1-Yl)Ethyl]Piperidine-1-Carboxylate] | – | 1 to 5
CN1CCCN(CC(=O)Nc2cc(Nc3cc(-c4cc(Cl)ccc4F)nnc3CO)ccn2)CC1 [Example 178, N-(4-{[6-(5-Chloro-2-Fluorophenyl)-3-(Hydroxymethyl)Pyridazin-4-Yl]Amino}Pyridin-2-Yl)-2-(4-Methyl-1,4-Diazepan-1-Yl)Acetamide] | < 1 | –
Cc1nnc(-c2cc(Cl)ccc2F)cc1Nc1ccnc2cc(OC(=O)N3CCN(CCC4CCN(C)CC4)C(C(=O)OC4COC4)C3)ccc12 (stereo not drawn) [Example 168, 1-(4-{[6-(5-chloro-2-fluorophenyl)-3-methylpyridazin-4-yl]amino}quinolin-7-yl) 3-oxetan-3-yl 4-[2-(1-methylpiperidin-4-yl)ethyl]piperazine-1,3-dicarboxylate] | – | 1 to 5
COC(=O)CC1CN(C)CCN1CCC(=O)Nc1cc(Nc2cc(-c3cc(Cl)ccc3F)nnc2C)ccn1 (stereo not drawn) [Example 101, methyl 2-(1-{2-[(4-{[6-(5-chloro-2-fluorophenyl)-3-methylpyridazin-4-yl]amino}pyridin-2-yl)carbamoyl]ethyl}-4-methylpiperazin-2-yl)acetate] | < 1 | –
CN1CCN(CCC(=O)Nc2cc(Nc3cnnc(-c4cc(Cl)ccc4F)c3)ccn2)C(=O)C1 [Example 22, N-(4-{[6-(5-Chloro-2-Fluorophenyl)Pyridazin-4-Yl]Amino}Pyridin-2-Yl)-3-(4-Methyl-2-Oxopiperazin-1-Yl)Propanamide] | 1 to 5 | –
Cc1nnc(-c2cc(Cl)ccc2F)cc1Nc1ccnc(NC(=O)CN2CCN(CCN)CC2)c1 [Example 108, 2-[4-(2-Aminoethyl)Piperazin-1-Yl]-N-(4-{[6-(5-Chloro-2-Fluorophenyl)-3-Methylpyridazin-4-Yl]Amino}Pyridin-2-Yl)Acetamide] | < 1 | –
CN1CC2(CCN(C(=O)Oc3ccc4c(Nc5cnnc(-c6cc(Cl)ccc6F)c5)ccnc4c3)C2)C1 [Example 119, 4-{[6-(5-Chloro-2-Fluorophenyl)Pyridazin-4-Yl]Amino}Quinolin-7-Yl 2-Methyl-2,6-Diazaspiro[3.4]Octane-6-Carboxylate] | – | 1 to 5
CN(CCOc1ccc2c(Nc3cnnc(-c4cc(Cl)ccc4F)c3)ccnc2c1)C1COC1 [Example 42, N-[6-(5-Chloro-2-Fluorophenyl)Pyridazin-4-Yl]-7-{2-[Methyl(Oxetan-3-Yl)Amino]Ethoxy}Quinolin-4-Amine] | < 1 | –
Cc1nnc(-c2cc(Cl)ccc2F)cc1Nc1ccnc(NC(=O)NCCN2CCN(C)CC2)c1 [Example 141, 1-(4-{[6-(5-Chloro-2-Fluorophenyl)-3-Methylpyridazin-4-Yl]Amino}Pyridin-2-Yl)-3-[2-(4-Methylpiperazin-1-Yl)Ethyl]Urea] | < 1 | –
Cc1nnc(-c2cc(Cl)ccc2F)cc1Nc1ccnc(NC(=O)CN2CCCN(C)CC2)c1 [Example 166, N-(4-{[6-(5-Chloro-2-Fluorophenyl)-3-Methylpyridazin-4-Yl]Amino}Pyridin-2-Yl)-2-(4-Methyl-1,4-Diazepan-1-Yl)Acetamide] | < 1 | –
CNCCNCCC(=O)Nc1cc(Nc2cc(-c3cc(Cl)ccc3F)nnc2C)ccn1 [Example 93, N-(4-{[6-(5-Chloro-2-Fluorophenyl)-3-Methylpyridazin-4-Yl]Amino}Pyridin-2-Yl)-3-{[2-(Methylamino)Ethyl]Amino}Propanamide] | < 1 | –
NCCN1CCN(CCOc2ccc3c(Nc4cnnc(-c5cc(Cl)ccc5F)c4)ccnc3c2)CC1 [Example 66, 7-{2-[4-(2-Aminoethyl)Piperazin-1-Yl]Ethoxy}-N-[6-(5-Chloro-2-Fluorophenyl)Pyridazin-4-Yl]Quinolin-4-Amine] | < 1 | –
O=C(CCN1CCN(CCO)CC1)Nc1cc(Nc2cc(-c3cc(Cl)ccc3F)nnc2C(F)(F)F)ccn1 [Example 184, N-(4-{[6-(5-Chloro-2-Fluorophenyl)-3-(Trifluoromethyl)Pyridazin-4-Yl]Amino}Pyridin-2-Yl)-3-[4-(2-Hydroxyethyl)Piperazin-1-Yl]Propenamide] | < 1 | –
CN1CCN(CCN(C)C(=O)Oc2ccc3c(Nc4cnnc(-c5cc(Cl)ccc5F)c4)ccnc3c2)CC1 [Example 45, 4-{[6-(5-Chloro-2-Fluorophenyl)Pyridazin-4-Yl]Amino}Quinolin-7-Yl N-Methyl-N-[2-(4-Methylpiperazin-1-Yl)Ethyl]Carbamate] | – | 1 to 5
CN1CC[C@H](OC(=O)c2ccc3c(Nc4cnnc(-c5cc(Cl)ccc5F)c4)ccnc3c2)C1 [Example 58, (3S)-1-Methylpyrrolidin-3-Yl 4-{[6-(5-Chloro-2-Fluorophenyl)Pyridazin-4-Yl]Amino}Quinoline-7-Carboxylate] | 1 to 5 | –
CCOC1(CO)CN(CCC(=O)Nc2cc(Nc3cc(-c4cc(Cl)ccc4F)nnc3C)ccn2)C1 [Example 79, N-(4-{[6-(5-chloro-2-fluorophenyl)-3-methylpyridazin-4-yl]amino}pyridin-2-yl)-3-[3-ethoxy-3-(hydroxymethyl)azetidin-1-yl]propanamide] | < 1 | –
CN1CCC(Oc2ccc3c(Nc4cnnc(-c5cc(Cl)ccc5F)c4)ccnc3c2)CC1 [Example 73, N-[6-(5-Chloro-2-Fluorophenyl)Pyridazin-4-Yl]-7-[(1-Methylpiperidin-4-Yl)Oxy]Quinolin-4-Amine] | < 1 | –

Continued, in another order:

IC50 [1] [nM] | Structure (SMILES) | IC50 [nM]
< 1 | Cc1nnc(-c2cc(Cl)ccc2F)cc1Nc1ccnc(NC(=O)N2CCC3(CCN(C)C3)CC2)c1 [Example 150, N-(4-{[6-(5-Chloro-2-Fluorophenyl)-3-Methylpyridazin-4-Yl]Amino}Pyridin-2-Yl)-2-Methyl-2,8-Diazaspiro[4.5]Decane-8-Carboxamide] | –
< 1 | CN1CCCN(CCCOc2ccc3c(Nc4cnnc(-c5cc(Cl)ccc5F)c4)ccnc3c2)C1 [Example 52, N-[6-(5-Chloro-2-Fluorophenyl)Pyridazin-4-Yl]-7-[3-(3-Methyl-1,3-Diazinan-1-Yl)Propoxy]Quinolin-4-Amine] | –
< 1 | COC(=O)C1CN(CCC(=O)Nc2cc(Nc3cc(-c4cc(Cl)ccc4F)nnc3C)ccn2)CCN1C (stereo not drawn) [Example 94, Methyl 4-{2-[(4-{[6-(5-Chloro-2-Fluorophenyl)-3-Methylpyridazin-4-Yl]Amino}Pyridin-2-Yl)Carbamoyl]Ethyl}-1-Methylpiperazine-2-Carboxylate] | –
< 1 | CN(CCC(=O)Nc1cc(Nc2cnnc(-c3cc(Cl)ccc3F)c2)ccn1)C1COC1 [Example 18, N-(4-{[6-(5-Chloro-2-Fluorophenyl)Pyridazin-4-Yl]Amino}Pyridin-2-Yl)-3-[Methyl(Oxetan-3-Yl)Amino]Propanamide] | –
< 1 | Cc1nnc(-c2cc(Cl)ccc2F)cc1Nc1ccnc(NC(=O)CCN2CCN(C)C(C(=O)OC(C)C)C2)c1 (stereo not drawn) [Example 126, Propan-2-Yl 4-{2-[(4-{[6-(5-Chloro-2-Fluorophenyl)-3-Methylpyridazin-4-Yl]Amino}Pyridin-2-Yl)Carbamoyl]Ethyl}-1-Methylpiperazine-2-Carboxylate] | –
< 1 | Cc1nnc(-c2cc(Cl)ccc2F)cc1Nc1ccnc(NC(=O)CN2CCNCC2)c1 [Example 164, N-(4-{[6-(5-Chloro-2-Fluorophenyl)-3-Methylpyridazin-4-Yl]Amino}Pyridin-2-Yl)-2-(Piperazin-1-Yl)Acetamide] | –
< 1 | OCCN1CCN(CCOc2ccc3c(Nc4cnnc(-c5cc(Cl)ccc5F)c4)ccnc3c2)CC1 [Example 72, 2-(4-{2-[(4-{[6-(5-Chloro-2-Fluorophenyl)Pyridazin-4-Yl]Amino}Quinolin-7-Yl)Oxy]Ethyl}Piperazin-1-Yl)Ethan-1-Ol] | –
< 1 | Cc1nnc(-c2cc(Cl)ccc2F)cc1Nc1ccnc(NC(=O)CN2CCCNCC2)c1 [Example 154, N-(4-{[6-(5-Chloro-2-Fluorophenyl)-3-Methylpyridazin-4-Yl]Amino}Pyridin-2-Yl)-2-(1,4-Diazepan-1-Yl)Acetamide] | –
< 1 | COc1cc2c(Nc3cnnc(-c4cc(Cl)ccc4F)c3)ccnc2cc1OCCN1CCN(C)CC1 [Example 87, N-[6-(5-Chloro-2-Fluorophenyl)Pyridazin-4-Yl]-6-Methoxy-7-[2-(4-Methylpiperazin-1-Yl)Ethoxy]Quinolin-4-Amine] | –
< 1 | COC(=O)CN1CCN(CC(=O)Nc2cc(Nc3cc(-c4cc(Cl)ccc4F)nnc3C)ccn2)CC1 [Example 96, methyl 2-(4-{[(4-{[6-(5-chloro-2-fluorophenyl)-3-methylpyridazin-4-yl]amino}pyridin-2-yl)carbamoyl]methyl}piperazin-1-yl)acetate] | –
